{"source": "patent US9028802B2", "about": "“Method of differentially diagnosing different types of dementia” (Koninklijke Philips Electronics N.V., priority 2007, dated 2015)", "origin": "cited, not measured here", "target": "T1, Dopamine Transporter (DAT) (Homo sapiens, UniProt Q01959)", "T1 construct": "those areas of the brain in which Dopamine Transporters (DAT) are localized, such as the nigrostriatum; from tissue; host or cells: brain (nigrostriatum) of the living subject, in vivo SPECT", "T1 sequence (Q01959 whole entry)": "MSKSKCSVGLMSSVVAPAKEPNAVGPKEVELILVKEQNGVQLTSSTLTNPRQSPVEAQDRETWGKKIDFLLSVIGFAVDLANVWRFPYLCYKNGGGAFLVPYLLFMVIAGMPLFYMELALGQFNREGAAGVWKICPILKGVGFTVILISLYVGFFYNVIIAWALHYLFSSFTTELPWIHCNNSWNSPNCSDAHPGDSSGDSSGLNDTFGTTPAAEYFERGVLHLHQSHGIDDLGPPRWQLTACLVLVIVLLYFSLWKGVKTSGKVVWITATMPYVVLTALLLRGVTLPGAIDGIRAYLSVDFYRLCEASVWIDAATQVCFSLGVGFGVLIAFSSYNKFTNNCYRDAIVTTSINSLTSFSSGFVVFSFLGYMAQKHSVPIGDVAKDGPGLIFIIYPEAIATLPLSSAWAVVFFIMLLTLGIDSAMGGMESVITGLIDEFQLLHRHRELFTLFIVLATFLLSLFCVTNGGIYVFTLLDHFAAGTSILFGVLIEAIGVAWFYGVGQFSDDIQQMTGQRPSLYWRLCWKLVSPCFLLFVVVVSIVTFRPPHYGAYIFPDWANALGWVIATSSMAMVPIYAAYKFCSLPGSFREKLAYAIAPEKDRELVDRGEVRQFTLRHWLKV", "conditions": "SPECT tracer, time point x2 after administration; 'typically'"}
{"smiles": "COC(=O)C1C2CCC(C[C@@H]1c1ccc(I)cc1)N2CCCF", "note": "(stereo partly shown) [Datscan]", "values": [{"measurement": "time period after which association with Dopamine Transporters is observed", "value": "three to four"}]}
